Results published in patent US4338305A, “Use of LRH and LRH agonists” (American Home Products Corporation, priority 1975, dated 1982).
Structures can show the parent of a compound that is named as a salt. Where two headings read alike, the source gives them in different places. Non-standard residues stand in square brackets, D forms with d. Residues, ends and D or L forms follow the SMILES beside them. pGlu = O=C1CC[C@@H](C(=O)O)N1

What was measured:
[1] = literature report; cited from earlier work
[2] = test system: Female, Sprague-Dawley rats
Description: Female, Sprague-Dawley rats, 350±30 g., are caged daily (P.M.) with adult, sexually experienced Sprague-Dawley males. Vaginal smears are taken each A.M. after cohabitation. The presence of vaginal sperm is used as the index of mating and the initiation of pregnancy. Day 1 of pregnancy is taken as the day sperm is found in the vaginal smear. Mated females are then grouped separately. Treatment is begun at any time over the first 12 days of pregnancy at a divided dose (9 A.M. and 3 P.M.) or a single treatment. Claudogenic activity is defined for compounds administered over the first 7 days inclusive of pregnancy (Pre-implantation). Interceptive activity is defined for compounds administered days 7-12 inclusive of pregnancy (Post-implantation). Rats are sacrificed on day 14 (claudogen), day 18 (interceptive) or allowed to come to term prior to the option of sacrifice (claudogen or interceptive.) Rats containing at least one "Normal" fetus are considered pregnant.
For the purpose of defining the post-coital stages of pregnancy in the rat as an experimental model, the following schedule is provided in definition of post-coital contraceptive activity which, for the purpose of this disclosure, is intended to embrace both pre-(claudogenic) and post-(interceptive) implantation contraceptive activity: day 1--vaginal sperm; days 1-3--ova transport in oviducts, and fertilization; days 3-5 blastocyst free in uterine lumen; days 5-7--implantation into uterine wall; days>7--post implantation.

[3] = test system: Proestrous female rats; assay: Ovulation Induction in the Rat; format: in vivo; settings: as a result of induced LH production
Method: (b) Ovulation Induction in the Rat
Proestrous female rats were injected intraperitoneally with a hypnotic dose of Nembutal about (~60 mg/kg) at 1:30 P.M. This treatment blocks the spontaneous ovulatory surge of pituitary LH which generally occurs between 2:00 and 4:00 P.M. Between 1:40 and 1:50 P.M. the recipients then received the test material via the jugular vein. The following morning the animals are sacrificed and the fallopian tubes examined for ova under a dissecting microscope.

[4] = PO, total daily dose 500 μg/rat, Rx days 7-12 post coitus
[5] = PO, total daily dose 1000 μg/rat, Rx days 1-7 post coitus
[6] = PO, total daily dose 1000 μg/rat, Rx days 7-12 post coitus
[7] = SC, total daily dose 5.0 μg/rat, Rx days 7-12 post coitus
[8] = SC, total daily dose 100 μg/rat, Rx days 1-3 post coitus
[9] = SC, total daily dose 100 μg/rat, Rx days 1-7 post coitus
[10] = SC, total daily dose 200 μg/rat, Rx days 1-3 post coitus
[11] = SC, total daily dose 5000 μg/rat, Rx day 3 post coitus
[12] = PO, total daily dose 500 μg/rat, Rx days 1-7 post coitus
[13] = SC, total daily dose 300 μg/rat, Rx days 1-3 post coitus

CCNC(=O)[C@@H]1CCCN1C(=O)[C@H](CCCNC(=N)N)NC(=O)[C@H](CC(C)C)NC(=O)[C@@H](C)NC(=O)[C@H](Cc1ccc(O)cc1)NC(=O)[C@H](CO)NC(=O)[C@H](Cc1c[nH]c2ccccc12)NC(=O)[C@H](Cc1c[nH]cn1)NC(=O)[C@@H]1CCC(=O)N1
activity relative to LRH [1]: ~50 times
potency/activity versus LRH, in words [1]: markedly more potent than LRH
% inhibition of Pregnancy ([2]; PO, total daily dose 200 μg/rat, Rx days 7-12 post coitus): 0%
% inhibition of Pregnancy [2, 4]: 67%
% inhibition of Pregnancy [2, 5]: 100%
% inhibition of Pregnancy [2, 6]: 100%
% inhibition of Pregnancy ([2]; SC, total daily dose 0.10 μg/rat, Rx days 7-12 post coitus): 0%
% inhibition of Pregnancy ([2]; SC, total daily dose 1.0 μg/rat, Rx days 1-7 post coitus): 100%
% inhibition of Pregnancy ([2]; SC, total daily dose 1.0 μg/rat, Rx days 7-12 post coitus): 100%
% inhibition of Pregnancy [2, 7]: 100%
% inhibition of Pregnancy ([2]; SC, total daily dose 50 μg/rat, Rx days 1-3 post coitus): 40%
% inhibition of Pregnancy [2, 8]: 80%
% inhibition of Pregnancy [2, 9]: 100%
% inhibition of Pregnancy [2, 10]: 100%
% inhibition of Pregnancy [2, 11]: 100%
% inhibition of Pregnancy ([2]; SC, total daily dose 5000 μg/rat, Rx day 7 post coitus): 0%
% inhibition of Pregnancy ([2]; SC, total daily dose 5000 μg/rat, Rx day 8 post coitus): 100%
% inhibition of Pregnancy ([2]; SC, total daily dose .002 μg/rat, Rx days 1-7 post coitus): 0%
% inhibition of Pregnancy ([2]; SC, total daily dose .010 μg/rat, Rx days 1-7 post coitus): 30%

CCNC(=O)[C@@H]1CCCN1C(=O)[C@H](CCCNC(=N)N)NC(=O)[C@H](CC(C)C)NC(=O)[C@@H](CC(C)C)NC(=O)[C@H](Cc1ccc(O)cc1)NC(=O)[C@H](CO)NC(=O)[C@H](Cc1c[nH]c2ccccc12)NC(=O)[C@H](Cc1c[nH]cn1)NC(=O)[C@@H]1CCC(=O)N1
% inhibition of Pregnancy [2, 10]: 20%
% inhibition of Pregnancy ([2]; SC, total daily dose 200 μg/rat, Rx days 1-7 post coitus): 100%

CCNC(=O)[C@@H]1CCCN1C(=O)[C@H](CCCNC(=N)N)NC(=O)[C@H](CC(C)C)NC(=O)[C@@H](CC)NC(=O)[C@H](Cc1ccc(O)cc1)NC(=O)[C@H](CO)NC(=O)[C@H](Cc1c[nH]c2ccccc12)NC(=O)[C@H](Cc1c[nH]cn1)NC(=O)[C@@H]1CCC(=O)N1
% inhibition of Pregnancy [2, 4]: 20%
% inhibition of Pregnancy ([2]; SC, total daily dose 5.0 μg/rat, Rx days 1-7 post coitus): 40%
% inhibition of Pregnancy [2, 7]: 80%
% inhibition of Pregnancy [2, 9]: 100%

CCNC(=O)[C@@H]1CCCN1C(=O)[C@H](CCCNC(=N)N)NC(=O)[C@H](CS)NC(=O)[C@@H](C)NC(=O)[C@H](Cc1ccc(O)cc1)NC(=O)[C@H](CO)NC(=O)[C@H](Cc1c[nH]c2ccccc12)NC(=O)[C@H](Cc1c[nH]cn1)NC(=O)[C@@H]1CCC(=O)N1 ([pGlu]HWSY[dA]CRP-NHEt)
activity relative to LRH as ovulation inducing agents [3]: > 40 times

CCNC(=O)[C@@H]1CCCN1C(=O)[C@H](CCCNC(=N)N)NC(=O)[C@H](CS)NC(=O)[C@@H](CC(C)C)NC(=O)[C@H](Cc1ccc(O)cc1)NC(=O)[C@H](CO)NC(=O)[C@H](Cc1c[nH]c2ccccc12)NC(=O)[C@H](Cc1c[nH]cn1)NC(=O)[C@@H]1CCC(=O)N1 ([pGlu]HWSY[dL]CRP-NHEt)
activity relative to LRH as ovulation inducing agents [3]: > 40 times

CCNC(=O)[C@@H]1CCCN1C(=O)[C@H](CCCNC(=N)N)NC(=O)[C@H](CO)NC(=O)[C@@H](CC(C)C)NC(=O)[C@H](Cc1ccc(O)cc1)NC(=O)[C@H](CO)NC(=O)[C@H](Cc1c[nH]c2ccccc12)NC(=O)[C@H](Cc1c[nH]cn1)NC(=O)[C@@H]1CCC(=O)N1 ([pGlu]HWSY[dL]SRP-NHEt)
activity relative to LRH as ovulation inducing agents [3]: > 40 times

CCNC(=O)[C@@H]1CCCN1C(=O)[C@H](CCCNC(=N)N)NC(=O)[C@H](CO)NC(=O)[C@@H](CO)NC(=O)[C@H](Cc1ccc(O)cc1)NC(=O)[C@H](CO)NC(=O)[C@H](Cc1c[nH]c2ccccc12)NC(=O)[C@H](Cc1c[nH]cn1)NC(=O)[C@@H]1CCC(=O)N1 ([pGlu]HWSY[dS]SRP-NHEt)
activity relative to LRH as ovulation inducing agents [3]: > 40 times

CC(C)C[C@H](NC(=O)CNC(=O)[C@H](Cc1ccc(O)cc1)NC(=O)[C@H](CO)NC(=O)[C@H](Cc1c[nH]c2ccccc12)NC(=O)[C@H](Cc1cnc[nH]1)NC(=O)[C@@H]1CCC(=O)N1)C(=O)N[C@@H](CCCNC(=N)N)C(=O)N1CCC[C@H]1C(=O)NCC(N)=O [LRH, L-(5-oxo-prolyl)-L-histidyl-L-tryptophyl-L-seryl-L-tyrosyl-glycyl-L-leucyl-L-arginyl-L-prolyl-glycinamide, reference compound]
% inhibition of Pregnancy [2, 12]: 20%
% inhibition of Pregnancy [2, 4]: 0%
% inhibition of Pregnancy [2, 5]: 60%
% inhibition of Pregnancy [2, 6]: 100%
% inhibition of Pregnancy ([2]; SC, total daily dose 50 μg/rat, Rx days 1-7 post coitus): 0%
% inhibition of Pregnancy [2, 8]: 0%
% inhibition of Pregnancy [2, 9]: 100%
% inhibition of Pregnancy ([2]; SC, total daily dose 200 μg/rat, Rx days 7-12 post coitus): 50%
% inhibition of Pregnancy [2, 13]: 20%
% inhibition of Pregnancy ([2]; SC, total daily dose 500 μg/rat, Rx days 1-3 post coitus): 40%
% inhibition of Pregnancy ([2]; SC, total daily dose 1000 μg/rat, Rx days 1-3 post coitus): 40%
% inhibition of Pregnancy ([2]; SC, total daily dose 1000 μg/rat, Rx days 1-7 post coitus): 100%
% inhibition of Pregnancy [2, 11]: 100%
post-coital anti-pregnancy (claudogenic/interceptive) effect ([2]; rat, administered post-coitally): effective in inhibiting pregnancy
teratogenicity ([2]; rat, in vivo): some signs of teratogenicity

CC(C)C[C@H](NC(=O)C(C)(C)NC(=O)[C@H](Cc1ccc(O)cc1)NC(=O)[C@H](CO)NC(=O)[C@H](Cc1c[nH]c2ccccc12)NC(=O)[C@H](Cc1c[nH]cn1)NC(=O)[C@@H]1CCC(=O)N1)C(=O)N[C@@H](CCCNC(=N)N)C(=O)N1CCC[C@H]1C(=O)NCC(N)=O [[2-methyl-Ala^6]LRH, L-(5-oxoprolyl)-L-histidyl-L-tryptophyl-L-seryl-L-tyrosyl-2-methylalanyl-L-leucyl-L-arginyl-L-prolylglycinamide acetate salt]
% inhibition of Pregnancy [2, 9]: 75%
% inhibition of Pregnancy ([2]; SC, total daily dose 500 μg/rat, Rx days 1-7 post coitus): 100%

CC(C)C[C@H](NC(=O)[C@@H](C)NC(=O)[C@H](Cc1ccc(O)cc1)NC(=O)[C@H](CO)NC(=O)[C@H](Cc1c[nH]c2ccccc12)NC(=O)[C@H](Cc1c[nH]cn1)NC(=O)[C@@H]1CCC(=O)N1)C(=O)N[C@@H](CCCNC(=N)N)C(=O)N1CCC[C@H]1C(=O)NCC(N)=O [[D-Ala^6]LRH]
% inhibition of Pregnancy [2, 8]: 17%
% inhibition of Pregnancy [2, 13]: 50%

CCNC(=O)[C@@H]1CCCN1C(=O)[C@H](CCCNC(=N)N)NC(=O)[C@H](CC(C)C)NC(=O)[C@@H](CC(=O)O)NC(=O)[C@H](Cc1ccc(O)cc1)NC(=O)[C@H](CO)NC(=O)[C@H](Cc1c[nH]c2ccccc12)NC(=O)[C@H](Cc1c[nH]cn1)NC(=O)[C@@H]1CCC(=O)N1 [[D-Asp^6, des-Gly-NH2^10]LRH ethylamide]
activity relative to LRH as ovulation inducing agents [3]: > 40 times

CCNC(=O)[C@@H]1CCCN1C(=O)[C@H](CCCNC(=N)N)NC(=O)[C@H](CC(C)C)NC(=O)[C@@H](CS)NC(=O)[C@H](Cc1ccc(O)cc1)NC(=O)[C@H](CO)NC(=O)[C@H](Cc1c[nH]c2ccccc12)NC(=O)[C@H](Cc1c[nH]cn1)NC(=O)[C@@H]1CCC(=O)N1 [[D-Cys^6, des-Gly-NH2^10]LRH ethylamide]
activity relative to LRH as ovulation inducing agents [3]: > 40 times

CCNC(=O)[C@@H]1CCCN1C(=O)[C@H](CCCNC(=N)N)NC(=O)[C@H](CC(C)C)NC(=O)[C@@H](CCC(=O)O)NC(=O)[C@H](Cc1ccc(O)cc1)NC(=O)[C@H](CO)NC(=O)[C@H](Cc1c[nH]c2ccccc12)NC(=O)[C@H](Cc1c[nH]cn1)NC(=O)[C@@H]1CCC(=O)N1 [[D-Glu^6, des-Gly-NH2^10]LRH ethylamide]
activity relative to LRH as ovulation inducing agents [3]: > 40 times

CCNC(=O)[C@@H]1CCCN1C(=O)[C@H](CCCNC(=N)N)NC(=O)[C@H](CC(C)C)NC(=O)[C@@H](CCCCN)NC(=O)[C@H](Cc1ccc(O)cc1)NC(=O)[C@H](CO)NC(=O)[C@H](Cc1c[nH]c2ccccc12)NC(=O)[C@H](Cc1c[nH]cn1)NC(=O)[C@@H]1CCC(=O)N1 [[D-Lys^6, des-Gly-NH2^10]LRH ethylamide]
activity relative to LRH as ovulation inducing agents [3]: > 40 times

CC(C)C[C@H](NC(=O)[C@@H](CCCCN)NC(=O)[C@H](Cc1ccc(O)cc1)NC(=O)[C@H](CO)NC(=O)[C@H](Cc1c[nH]c2ccccc12)NC(=O)[C@H](Cc1c[nH]cn1)NC(=O)[C@@H]1CCC(=O)N1)C(=O)N[C@@H](CCCNC(=N)N)C(=O)N1CCC[C@H]1C(=O)NCC(N)=O [[D-Lys^6]LRH, L-Pyroglutamyl-L-histidyl-L-tryptophyl-L-seryl-L-tyrosyl-D-lysyl-L-leucyl-L-arginyl-L-prolyl-glycinamide]
% inhibition of Pregnancy [2, 12]: 40%
% inhibition of Pregnancy ([2]; SC, total daily dose 5.0 μg/rat, Rx days 1-12 post coitus): 20%
% inhibition of Pregnancy [2, 8]: 0%
% inhibition of Pregnancy [2, 13]: 60%
% inhibition of Pregnancy ([2]; SC, total daily dose 300 μg/rat, Rx days 1-7 post coitus): 100%
